According to US20090227606A1, “Methods for Preventing or Treating Acute and Chronic Pain” (priority 2006, published 2009):
Entries after “also recorded” stand apart in the source; their conditions may differ.

Legend:
[1] = test system: primary cultured astrocytes; experiment: Astrocyte morphology and process length, phase contrast microscopy; assay type: cell-based, rat; conditions: 3 days or 7 days of treatment, phase contrast microscopy
Protocol: Astrocyte cultures were prepared from the cortices of neonatal rats (1-3 days old) using the Worthington Papain Dissociation System (Worthington Biochemical Corporation, Lakewood, N.J.) according to the method of Huettner and Baughman (1986. J. Neurosci. 6:3044-3060). Briefly, cortices of neonatal rats were dissected, treated with papain (20 U/ml), dissociated by trituration and plated in 75 cm^2 flasks in Dulbecco's modified Eagle's medium (DMEM) supplemented with 10% charcoal-stripped fetal bovine serum (FBS), 1% GlutaMax and 1% penicillin/streptomycin (P/S, 100 U/ml penicillin, 100 μg/ml streptomycin, P/S). Cells were fed twice weekly until they reached confluence (Day in vitro, DIV 10-12) at which point they were mechanically shaken for 1 hr on an orbital shaker to remove any remaining oligodendrocytes and microglia. Subsequently, cultures were treated with trypsin for 30 minutes at 37° C. and re-plated into 6 or 12-well dishes at a density of about 3.0×10^4 cells/cm^2. Resultant cultures were greater than 95% astrocytic as determined by GFAP immunostaining.
After approximately 14 days (2 days after subplating into plates, DIV 14) astrocytes had formed a confluent monolayer. […] Phase contrast microscopy was then carried out in order to assess the morphology of cells after the various treatments. Length of astrocyte processes was quantified by measuring all processes in 2-3 phase contrast images/group by an independent observer, blinded to the treatment groups using Image J v1.34s (National Institutes of Health, Bethesda, Md.).

[2] = test system: Na+-dependent glutamate transport; experiment: Na+-dependent [3H]-glutamate uptake in cultured astrocytes; assay type: cell-based, rat
Protocol: Primary astrocytes were plated in 6-well plates, as described above. […] Where indicated, 100 μM dihydrokainate (DHK) was added to wells for 10 minutes before the addition of the substrate. Subsequently, [^3H]-glutamate in Na^+ Krebs buffer or Na^+-free Krebs buffer (choline buffer) was added for 4 minutes at 37° C. The reaction was stopped by washing three times with ice cold buffer (0.05 M Tris/0.16 M NaCl, pH 7.4), and cells were lysed with 1 ml 0.1 N NaOH. The radioactivity in a 500 μl lysate aliquot was determined by liquid scintillation counting and a fraction of the lysate was also used for determination of protein concentration using the Lowry method (DC assay, Bio-Rad, Hercules, Calif.). Na^+-dependent transport was calculated as the difference in the radioactivity accumulated in the presence and absence of Na^+ and calculated as nmol/mg protein/min. Results are expressed as uptake relative to control samples.

cultured astrocytes = experiment: Reversibility of astrocyte phenotype change after 7 day washout; assay type: cell-based, rat; conditions: 7 days treatment (high dose), then 7 day washout in control media
Protocol: In order to ensure that the morphological effects of propentofylline on astrocytes were due to specific pharmacological effects and not due to toxicity, experiments were performed to determine if the phenotype change observed was reversible.

[3] = test system: L5 spinal nerve transected mice; experiment: Mechanical allodynia after L5 spinal nerve transection in eGFP-GLT-1/DsRed-GLAST transgenic mice; assay type: in vivo, mouse; conditions: for first day on which inhibition of mechanical allodynia was evident: 10 mg/kg i.p. daily
Protocol: In addition to studies using a rat model of pain for examining the role of glutamate transporters in the therapeutic response (analgesic) of propentofylline treatment, studies were also performed in a double transgenic reporter mouse line that expressed eGFP-GLT-1/DsRed-GLAST. Use of the transgenic mouse model further defined the effect of propentofylline on glutamate transporters, GLT-1 and GLAST. The animals were injected intraperitoneally with 10 mg/kg propentofylline in sterile saline or saline vehicle alone (n=5 to 8 per group). The first injections were administered one hour prior to L5 spinal nerve transection and continued daily in the evening (between 5 and 7 PM) until day 12 post-transection. Mice received either an L5 spinal nerve transection or sham surgery on day 0. The development of mechanical allodynia was monitored on days 1, 3, 5, 7, 9 and 12 as described for rats previously. The monitoring was performed in the morning at approximately 15 hours post-propentofylline or saline injection. Mice were transcardially perfused on day 12 post-transection, spinal cords were removed, and the tissue was processed for immunohistochemistry.
Transgenic mice on a C57B1/6 background were created according to the methods previously described (Regan et al. 2006. J. Neuroscience, in press). Briefly, in order to determine where in the central nervous system GLAST is expressed, transgenic mice were created using a bacterial artificial chromosome containing the GLAST gene plus 18 kb of DNA upstream of the first exon and 60 kb downstream of the last exon. DsRed cDNA was inserted into the first exon to allow expression of DsRed instead of GLAST when the promoter is active. Similarly, in order to investigate the distribution of GLT-1, transgenic mice expressing GLT-1 with eGFP running from the promoter were also created. These two types of transgenic mice were crossed and the resultant double transgenic eGFP-GLT-1/DsRed-GLAST mice were used in the experiments at 8 to 10 weeks of age.

astrocytic activation = conditions: DeLeo et al. 1987; cited from earlier work

CCCn1cnc2c1c(=O)n(CCCCC(C)=O)c(=O)n2C [propentofylline]
astrocyte morphology [1]: dose-dependent shift from a flat, polygonal shape to a stellate, process-bearing shape
sensitivity of increased glutamate transport to DHK inhibition ([2]; 100 μM DHK for 10 minutes before substrate): sensitive to DHK inhibition
increase in glutamate uptake ([2]; 100 μM, 7 days): 1.7 fold
increase in Na+-dependent glutamate transport ([2]; 1000 μM, 7 days): 2.1 fold
glutamate uptake, in words ([2]; 7-day treated cultures): dose-dependent increase in glutamate uptake
reversibility of morphological change (cultured astrocytes): reversal was more complete in propentofylline-treated cells
first day on which inhibition of mechanical allodynia was evident ([3]; 0.008 g filament): 3 days
mechanical allodynia (0.008 g and 0.02 g von Frey filaments) ([3]; 10 mg/kg intraperitoneally daily, from one hour prior to transection): significant decrease in mechanical allodynia; also recorded: robustly inhibited the development of mechanical allodynia in mice; also recorded: remained similar to the sham control mice at every time point for both filaments
first day on which inhibition of mechanical allodynia was evident ([3]; 0.02 g filament): 1 days
astrocytic activation (astrocytic activation): attenuate astrocytic activation
